Publication PMC4894032 (European journal of medicinal chemistry, 2016)

System: carrageenan-induced mouse paw edema
Test: Carrageenan-induced paw edema
Type: in vivo, mouse (female C57BL/6J)
Conditions: carrageenan-induced mouse paw inflammation; IIn treated

`CN(Cc1ccccn1)Cc1cccc(CN(C)Cc2ccccn2)n1` [IIn, N,N′-(Pyridine-2,6-diylbis(methylene))bis(N-methyl-1-(pyridin-2-yl)methanamine)] was tested, and the “Histological analysis of paw tissue (H&E)” value was “significantly attenuated the mouse paw inflammation and damage”.
